Results from US4241184A, “Secondary alcohol dehydrogenase enzyme and use thereof” (priority 1979, dated 1980).
Entries after “also recorded” stand apart in the source; their conditions may differ. Read-outs that look alike come from different tables or passages of the source.

Key:
[1] = system: P(40) particulate fraction of Methylosinus sp. (CRL-15, NRRL B-11,202); assay: Effect of inhibitors on propylene epoxidation and methane hydroxylation by P(40) fraction; assay type: biochemical; settings: inhibitor 10^-3 M
Experimental: The oxidation of methane and propylene by particulate [(P)40 and(P)80] fractions and soluble [S(80)] fraction was measured at 30° C. by estimating the production of methanol and propylene oxide, respectively. The reaction mixtures contained in 1.0 ml: 150 mM potassium phosphate buffer, pH 7.0 containing 5 mM MgCl2, 0.6 ml; 10 μmoles NADH, and cellular fraction.
Reaction mixtures were contained in 10 ml vials at 4° C. Vials were sealed with rubber caps. The gaseous phase in the vials was removed using vacuum and then was replaced with a gas mixture of methane or propylene and oxygen at a 1:1, v/v ratio. Oxidation of other gaseous n-alkanes and n-alkenes was examined as described above. For liquid substrates, 10 μl of substrate was used directly. Vials were then incubated at 30° C. on a rotary shaker at 200 RPM.
It has been reported that the oxidation of methane by cell suspensions of methane-utilizing bacteria was inhibited by various metal-binding or metal-chelating agents (Patel et al., J. Bacteriol. 126: 1017-1019 (1976)). […] (CRL-15, NRRL B-11,202) was examined.

[2] = system: cell-free particulate fractions derived from the methylotrophic microorganisms; assay: Conversion of C3-C6 n-alkanes to sec. alcohols by cell-free particulate fractions: inhibitors and electron donors; assay type: biochemical
Text: The conditions for preparing the cell suspensions or the cell-free particulate fractions from methane-grown methylotroph microorganisms is the same as described above. […] Tables XXV and XXVI show the conversion of C3 -C6 n-alkanes to the corresponding secondary alcohols using cell suspensions and cell-free particulate fractions, respectively, of methane-grown methylotroph microorganisms.

[3] = Oxidation of 2-butanol to 2-butanone by cell-free soluble extracts of C1-utilizing microbes; assay type: biochemical
Experimental: The clear supernatant contained the SADH activity. […] The reaction was started by the addition of substrate.
Catalytic activity was also assayed by fluorescence spectrophotometry.

[4] = system: secondary alcohol dehydrogenase (SADH); assay: Purified secondary alcohol dehydrogenase activity (formation of reduced NAD); assay type: biochemical, Pseudomonas sp. ATCC 21439
Experimental: Secondary alcohol dehydrogenase (SADH) from an obligate methanol utilizer, Pseudomonas sp. ATCC 21439 was purified as follows. […] 0.05 M sodium phosphate buffer, pH 7.0 with 0.5 mM dithiothretol (buffer A) and were disrupted sonically (5×1 min.). The crude extract was separated by centrifugation. The crude extract was heat-treated at 50° C. in a water bath for 10 minutes. The resulting precipitate was removed by centrifugation. To the supernatant solution, 25 ml of protamine sulfate solution (2% solution in 0.1 M Tris base) was added dropwise with continuous stirring. After standing for 30 minutes, the extract was centrifuged. The supernatant solution was fractionated with solid ammonium sulfate. The material precipitating between 30 and 60% saturation was collected and was dialized overnight against buffer A. The The dialized material was applied to a DEAE-cellulose column (3 cm by 35 cm) that had been equilibrated with buffer A. The secondary alcohol dehydrogenase activity was eluted in the void volume. This DEAE-cellulose eluate was concentrated by ammonium sulfate fractionation. Material precipitating between 30 and 50% ammonium sulfate saturation was collected by centrifugation and dialyzed overnight against A. This fraction was further washed and filtered through an Amicon unit with XM 50 membrane. The concentrated fraction (6 ml) inside the Amicon unit was applied to an Affi-Gel Blue column (0.8 cm×18 cm) which had been equilibrated with buffer A for affinity chromatography. The column was washed overnight with buffer A (0.18 ml./min.) and then was eluted with buffer A containing 5 mM NAD. Each 1 ml. fraction was collected.
The purified secondary alcohol dehydrogenase enzyme (SADH) may be used directly for converting C3 -C6 secondary alcohols to the corresponding methyl ketones by the procedures described above; however, a source of NAD^+ must be added to the reaction medium. One can determine the NAD-linked secondary alcohol dehydrogenase activity with a fluorescence spectrophotometer (Perkin Elmer, Model MPF 44A) by following the formation of reduced NAD (Ex 340 nm, Em 460 nm). The assay system (3 ml.) will typically contain: sodium phosphate buffer pH 7.0, 150 μmol; NAD 1.0 μmol; a given amount of enzyme preparation; and 20 μmol secondary alcohol. The reaction is started by the addition of secondary alcohol. One unit of SADH enzyme activity represents the reduction of one nmole NAD per minute.
The effect of metal-chelating agents and thioreagents on the activity of the purified SADH enzyme were studied. […] The possibility of ethanol or n-propanol as an inhibitor was studied.

[5] = system: secondary alcohol dehydrogenase; assay: Purified yeast secondary alcohol dehydrogenase: substrates, electron acceptors, inhibitors, stoichiometry; assay type: biochemical, Pichia sp. NRRL Y-11,328
Experimental: Large scale cultures of Pichia sp. NRRL Y-11,328 were grown with aeration at 30° C. in a 14-liter New Brunswick f fermentor in a mineral salt medium containing methanol (0.4%, v/v) as the sole carbon source. The cells (200 g., wet weight) were suspended in […] sodium phosphate buffer, pH 7.0, containing 1 mM dithiothreitol (buffer A), and crude extracts were prepared as described previously. To the crude extracts, 18 ml. of protamine sulfate solution [2% solution in 0.1 M tris (hydroxymethyl) aminomethane (tris) base] was added dropwise with continuous stirring. After standing for 30 min., the extracts were centrifuged at 20,000×g. for 60 min. The supernatant solution was fractionated with solid ammonium sulfate. Extracts were brought to 50% of saturation with respect to ammonium sulfate by addition of 313 g. of the salt per liter of extract. Precipitated proteins was removed by centrifugation, and 137 g. of ammonium sulfate was added per liter of the supernatant liquid to bring it to 70% of saturation. Material precipitating between 50 and 70% of saturation was collected by centrifugation and dissolved in buffer A. This preparation was dialyzed overnight against buffer A, and the dialyzed material was applied to a DEAE-cellulose column (5×40 cm) that had been equilibrated with buffer A. The sample was washed with 200 ml. of buffer A and eluted with 2 liters of buffer A that contained NaCl in a linear gradient running from a concentration of 0 to 0.5 M. Fractions of 15 ml. were collected. Fractions containing secondary alcohol dehydrogenase activity were pooled and were termed DEAE-cellulose eluate. The DEAE-cellulose eluate was concentrated by ammonium sulfate fractionation.
Secondary alcohol dehydrogenase activity was measured spectrophotometrically at 340 nm with a NAD^+ as an electron acceptor. The reaction mixture, in a total 3.0 ml., contained 50 mM phosphate buffer, pH 8.0, 5μ moles NAD^+, crude extracts, and subtrate. The reactions were started by addition of 100 μl of 0.1 M substrate and the rate of NAD^+ reduction was measured. Protein concentration was determined by the method of Lowry et al.
The substrate specificity of the purified secondary alcohol dehydrogenase was examined spectrophotometrically.

[6] = system: cell suspensions of C1 -utilizers; assay: Optimal conditions and inhibition of 2-butanone production from 2-butanol by cell suspensions; assay type: cell-based
Text: The following summarizes tests conducted on the optimal conditions for the production of methyl ketones from C3 -C6 sec. alcohols.

[7] = system: methanol-grown Methylococcus capsulatus CRL M1 (NRRL B-11,219); assay: Effect of metal-chelating agents and other inhibitors on production of 2-butanone by cell suspensions; assay type: cell-based
[8] = system: Methylosinus trichosporium OB3b (NRRL B-11,196); assay: Effect of inhibitors on epoxidation of propylene and hydroxylation of methane, cell-containing enzyme preparation; assay type: cell-based; settings: NRRLB11, 1 h
[9] = system: Methylococcus capsulatus (CRL Ml, NRRL B-11,219); assay: as above; assay type: cell-based; settings: for inhibition at 1000 µM: Methylococcus capsulatus, NRRLB11, 1 h
[10] = system: Methylobacterium organophilum (CRL 26, NRRL B-11,222); assay: as above; assay type: cell-based; settings: NRRLB11, 1 h
[11] = system: P(40) particulate fraction of Methylosinus sp. (CRL-15, NRRL B-11,202); assay: Oxidation of n-alkenes and n-alkanes by P(40) particulate fraction; assay type: biochemical
[12] = system: P(40) particulate fraction of Methylosinus sp. (CRL-15, NRRL B-11,202); assay: Stoichiometry of propylene epoxidation and methane hydroxylation by P(40) fraction; assay type: biochemical; settings: 5.0 μmoles substrate
Experimental: The particulate P(40) fraction of Methylosinus sp. (CRL-15, NRRL B-11,202) was used to determine the stoichiometry of hydroxylation and epoxidation reactions. The stoichiometry of methane or propylene-dependant NADH oxidation, oxygen consumption and product formation was approximately 1:1:1 Table XIV. This is consistent with methane or propylene oxygenation being catalyzed by a mono-oxygenase.
^a Under identical condition of reaction, the estimation of NADH
oxidized was carried out spectrophotometrically, the estimation of oxygen
consumed was measured polarographically, and estimation of product formed
was carried out by gas chromatography.

[13] = NRRLB11, read-out: Inhibition (%) of production of 2-butanone
[14] = purified SADH, each inhibitor 1 mM, measured spectrofluorometrically
[15] = read-out: % Inhibition, Epoxidation
[16] = read-out: % Inhibition, Hydroxylation
[17] = NRRLB11, read-out: Inhibition (%) of production of 2-butanone, 1 mM

SMILES: Oc1cccc2cccnc12 [8-Hydroxyquinoline]
- % Inhibition, Methane-Hydroxylating Activity [1]: 80%
- % Inhibition, Propylene-Epoxidizing Activity [1]: 75%
- inhibition of the conversion of the n-alkanes to the sec. alcohols [2]: inhibited

SMILES: NC(=O)c1ccc[n+]([C@@H]2O[C@H](COP(=O)([O-])OP(=O)(O)OC[C@H]3O[C@@H](n4cnc5c(N)ncnc54)[C@H](O)[C@@H]3O)[C@@H](O)[C@H]2O)c1 [NAD, Nicotinamide adenine dinucleotide]
- cofactor for oxidation of secondary alcohols in the cell-free system [3]: requirement; also recorded: required
- Km ([4]; Line-Weaver-Burk plot, read-out: Michaelis constants (Km) of SADH): 11 µM
- Km ([4]; pure SADH, read-out: Km values): 11 µM
- electron acceptor for the purified enzyme [5]: required

SMILES: O=C1C(Cl)=CC(=Nc2ccc(O)cc2)C=C1Cl [dichlorophenol indophenol]
- cofactor for oxidation of secondary alcohols in the cell-free system [3]: not effective
- electron acceptor for the purified enzyme [5]: could not act as electron carrier

SMILES: CCC(C)=O [2-butanone]
- inhibition of SADH activity by the product [4]: inhibited
- product inhibition of 2-butanone production ([6]; 8 μmoles 2-butanone added to viable cell suspensions): no product inhibition

SMILES: N[C@@H](CCC(=O)N[C@@H](CS)C(=O)NCC(=O)O)C(=O)O [glutathione]
- cofactor for oxidation of secondary alcohols in the cell-free system [3]: not effective
- inhibition of secondary alcohol dehydrogenase activity [5]: strongly inhibited

SMILES: [N-]=[N+]=[N-] [Sodium azide]
- inhibition at 1000 µM [7, 13]: 10%
- % inhibition of SADH activity [4, 14]: 10%

SMILES: NC(N)=S [Thiourea]
- % Inhibition, Methane-Hydroxylating Activity [1]: 98%
- % Inhibition, Propylene-Epoxidizing Activity [1]: 98%
- inhibition at 1000 µM [8, 15]: 100%
- inhibition at 1000 µM [8, 16]: 100%
- inhibition at 1000 µM [9, 15]: 100%
- inhibition at 1000 µM [9, 16]: 100%
- inhibition at 1000 µM [10, 15]: 100%
- inhibition at 1000 µM [10, 16]: 100%
- inhibition at 1000 µM [7, 17]: 0%
- inhibition of the conversion of the n-alkanes to the sec. alcohols [2]: inhibited
- inhibition of production of 2-butanone from 2-butanol by cell suspensions of the strains tested [6]: not inhibited

SMILES: NC(=O)C1=CN([C@@H]2O[C@H](COP(=O)(O)OP(=O)(O)OC[C@H]3O[C@@H](n4cnc5c(N)ncnc54)[C@H](OP(=O)(O)O)[C@@H]3O)[C@@H](O)[C@H]2O)C=CC1 [NAD(P)H]
- cofactor for oxidation of secondary alcohols in the cell-free system [3]: not effective

SMILES: NNC(N)=S [Thiosemicarbazide]
- % Inhibition, Methane-Hydroxylating Activity [1]: 100%
- % Inhibition, Propylene-Epoxidizing Activity [1]: 97%
- inhibition of the conversion of the n-alkanes to the sec. alcohols [2]: inhibited

SMILES: NC(=O)c1ccc[n+]([C@@H]2O[C@H](COP(=O)(O)OP(=O)(O)OC[C@H]3O[C@@H](n4cnc5c(N)ncnc54)[C@H](OP(=O)(O)O)[C@@H]3O)[C@@H](O)[C@H]2O)c1 [NADP]
- cofactor for oxidation of secondary alcohols in the cell-free system [3]: not effective
- electron acceptor for the purified enzyme [5]: could not act as electron carrier

SMILES: C [Methane]
- Propylene Oxide Produced ([11]; substrate competition, gas phase as labelled): 0 μmoles/hr/mg. protein
- Rate of Product Formation ([11]; substrate oxidized to its epoxide or alcohol, 30° C.): 4.8 μ moles/hr/mg of protein
- NADH Oxidized [12]: 4.8 µmol
- O2 Consumed [12]: 4.6 µmol
- Product formed [12]: 4.2 µmol
- inhibition of epoxidation of propylene to propylene oxide in the presence of methane ([9]; cell suspension of methane-grown strain): 50%

SMILES: O=C(O)CN(CCN(CC(=O)O)CC(=O)O)CC(=O)O [EDTA]
- inhibition at 1000 µM [7, 13]: 70%
- % inhibition of SADH activity [4]: 63%

SMILES: c1ccc(-c2ccccn2)nc1 [α,α -Bipyridyl, α,α-bipyridyl]
- % Inhibition, Methane-Hydroxylating Activity [1]: 99%
- % Inhibition, Propylene-Epoxidizing Activity [1]: 98%
- inhibition at 1000 µM [8, 15]: 100%
- inhibition at 1000 µM [8, 16]: 90%
- inhibition at 1000 µM [9, 15]: 100%
- inhibition at 1000 µM [9, 16]: 100%
- inhibition at 1000 µM [10, 15]: 100%
- inhibition at 1000 µM [10, 16]: 100%
- inhibition at 1000 µM [7, 17]: 75%
- % inhibition of SADH activity [4, 14]: 70%
- inhibition of the conversion of the n-alkanes to the sec. alcohols [2]: inhibited
- inhibition of production of 2-butanone from 2-butanol by cell suspensions of the strains tested [6]: inhibited

SMILES: C[n+]1c2ccccc2nc2ccccc21 [phenazine methosulfate]
- cofactor for oxidation of secondary alcohols in the cell-free system [3]: not effective
- electron acceptor for the purified enzyme [5]: could not act as electron carrier

SMILES: Cc1cc2nc3c(=O)[nH]c(=O)nc-3n(C[C@H](O)[C@H](O)[C@H](O)COP(=O)(O)OP(=O)(O)OC[C@H]3O[C@@H](n4cnc5c(N)ncnc54)[C@H](O)[C@@H]3O)c2cc1C [FAD, flavin adenine dinucleotide]
- cofactor for oxidation of secondary alcohols in the cell-free system [3]: not effective
- electron acceptor for the purified enzyme [5]: could not act as electron carrier
